Laboratory results taken from ChEMBL document CHEMBL1124016, “Antihypertensive activity in a series of 1-piperazino-3-phenylindans with potent 5-HT2-antagonistic activity” (J Med Chem, 1988).

What was measured:
[1] = target: Serotonin 2 (5-HT2) receptor (Rattus norvegicus, UniProt P30994+P08909+P14842); experiment: Inhibition of [3H]spiperone binding to 5-hydroxytryptamine 2 receptor from rat cortical membranes; type: cell membranes, Membrane
[2] = target: T1, Adrenergic receptor alpha-1 (Rattus norvegicus, UniProt P15823+P23944+P43140); experiment: Inhibition of [3H]prazosin binding to alpha-1 adrenergic receptor from rat cortical membranes; type: cell membranes, Membrane
T1 sequence (P15823 whole entry): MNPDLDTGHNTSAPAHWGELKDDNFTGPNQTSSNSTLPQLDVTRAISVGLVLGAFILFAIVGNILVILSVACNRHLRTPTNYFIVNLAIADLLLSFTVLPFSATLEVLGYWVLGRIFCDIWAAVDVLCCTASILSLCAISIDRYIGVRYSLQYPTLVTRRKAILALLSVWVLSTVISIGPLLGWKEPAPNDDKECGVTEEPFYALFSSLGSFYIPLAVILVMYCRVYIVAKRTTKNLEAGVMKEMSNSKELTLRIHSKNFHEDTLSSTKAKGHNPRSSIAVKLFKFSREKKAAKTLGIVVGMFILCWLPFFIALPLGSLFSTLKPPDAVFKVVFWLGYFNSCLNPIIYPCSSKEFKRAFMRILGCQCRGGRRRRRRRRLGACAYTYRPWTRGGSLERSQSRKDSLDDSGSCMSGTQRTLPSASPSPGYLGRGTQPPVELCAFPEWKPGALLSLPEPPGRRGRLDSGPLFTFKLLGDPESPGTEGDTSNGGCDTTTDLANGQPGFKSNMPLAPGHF
T1 sequence (P23944 whole entry): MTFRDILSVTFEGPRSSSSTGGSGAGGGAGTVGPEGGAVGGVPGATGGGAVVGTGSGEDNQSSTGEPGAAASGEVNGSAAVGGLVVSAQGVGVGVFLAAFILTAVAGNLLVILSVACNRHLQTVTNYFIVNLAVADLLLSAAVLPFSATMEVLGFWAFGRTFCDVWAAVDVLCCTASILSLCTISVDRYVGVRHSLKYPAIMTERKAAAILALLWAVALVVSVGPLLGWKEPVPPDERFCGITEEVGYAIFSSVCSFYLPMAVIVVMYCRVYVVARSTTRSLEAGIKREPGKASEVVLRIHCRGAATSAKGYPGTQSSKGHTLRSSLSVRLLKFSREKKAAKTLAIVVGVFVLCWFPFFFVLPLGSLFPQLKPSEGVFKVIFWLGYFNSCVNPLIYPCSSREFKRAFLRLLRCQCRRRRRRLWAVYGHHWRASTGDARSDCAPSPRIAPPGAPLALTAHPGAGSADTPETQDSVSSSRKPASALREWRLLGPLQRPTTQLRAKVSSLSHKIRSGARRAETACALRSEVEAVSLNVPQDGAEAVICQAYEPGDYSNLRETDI
T1 sequence (P43140 whole entry): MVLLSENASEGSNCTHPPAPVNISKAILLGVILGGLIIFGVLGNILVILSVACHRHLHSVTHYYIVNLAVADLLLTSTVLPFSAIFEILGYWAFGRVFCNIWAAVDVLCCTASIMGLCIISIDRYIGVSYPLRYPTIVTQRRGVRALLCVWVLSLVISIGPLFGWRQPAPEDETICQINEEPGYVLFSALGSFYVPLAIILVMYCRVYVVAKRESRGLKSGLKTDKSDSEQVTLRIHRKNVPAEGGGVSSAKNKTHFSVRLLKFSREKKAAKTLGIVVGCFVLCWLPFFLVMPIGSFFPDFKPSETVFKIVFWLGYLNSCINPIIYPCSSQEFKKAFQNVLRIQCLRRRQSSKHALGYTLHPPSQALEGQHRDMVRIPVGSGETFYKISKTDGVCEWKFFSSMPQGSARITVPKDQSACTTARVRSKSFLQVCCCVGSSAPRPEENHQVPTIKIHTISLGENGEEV

[3] = target: D(2) dopamine receptor (Rattus norvegicus, UniProt P61169); experiment: Inhibition of [3H]spiperone binding to Dopamine receptor D2 from rat striatal membranes; type: cell membranes, Membrane
[4] = system: Rattus norvegicus; experiment: Percent reduction of blood pressure in spontaneously hypertensive rat after 10 min at intraperitoneal administration of 5 mg/kg; type: functional
[5] = system: Rattus norvegicus; experiment: Inhibition of 5-HT induced pressor response in pithed rats, after intravenous administration of 0.02 mg/kg; type: functional
[6] = system: Rattus norvegicus; experiment: Inhibition of phenylephrine induced pressor response in pithed rats (following i.v. administration of […]); type: functional; settings: route intravenous
[7] = system: Rattus norvegicus; experiment: Inhibition of 5-HT induced pressor response in pithed rats, after intravenous administration, activity is expressed as ED50; type: functional
[8] = species: Rattus norvegicus; experiment: Ratio of phenylephrine ED50/ 5-HT ED50; type: functional
[9] = species: Mus musculus; experiment: Inhibition of methyl phenidate induced stereotyped gnawing in mice; type: functional
[10] = system: Rattus norvegicus; experiment: Percent reduction of diastolic arterial blood pressure(DAP) in spontaneously hypertensive rat after 10 min at intraperitoneal administration of 5 mg/kg; type: functional
[11] = system: Rattus norvegicus; experiment: Percent reduction of systolic arterial blood pressure(SAP) in spontaneously hypertensive rat after 10 min at intraperitoneal administration of 5 mg/kg; type: functional
[12] = species: Rattus norvegicus; experiment: Inhibition of L-5-HTP (L-5-hydroxytryptophan) induced head twitches in rat; type: functional
[13] = system: Rattus norvegicus; experiment: Inhibition of 5-HT induced pressor response in pithed rats, after intravenous administration; type: functional
[14] = Rattus norvegicus, read-out: ED50

Chain of D(2) dopamine receptor (P61169 whole entry): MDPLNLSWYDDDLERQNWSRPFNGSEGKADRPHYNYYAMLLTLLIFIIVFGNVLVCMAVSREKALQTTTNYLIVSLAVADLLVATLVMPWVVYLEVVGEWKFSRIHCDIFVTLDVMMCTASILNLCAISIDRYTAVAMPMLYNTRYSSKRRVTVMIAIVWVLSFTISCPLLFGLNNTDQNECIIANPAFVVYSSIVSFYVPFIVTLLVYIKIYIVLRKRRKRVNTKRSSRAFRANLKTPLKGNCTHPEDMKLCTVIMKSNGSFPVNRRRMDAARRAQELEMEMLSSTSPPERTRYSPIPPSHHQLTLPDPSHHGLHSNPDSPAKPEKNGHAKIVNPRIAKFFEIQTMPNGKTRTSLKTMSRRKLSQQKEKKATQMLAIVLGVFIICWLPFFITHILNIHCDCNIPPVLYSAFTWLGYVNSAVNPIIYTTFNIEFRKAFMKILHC

SMILES	IC50 [1] [nM]	IC50 [2] [nM]	IC50 [3] [nM]	Reduction [4] [%]	Change [5] [%]	Change [6] [%]	ED50 [7] [µmol/kg]	Ratio [8]	ED50 [9] [µmol/kg]	Increase [10] [%]	Reduction [11] [%]	ED50 [12, 14] [µmol/kg]	ED50 [13] [µmol/kg]	Reduction [10] [%]	ED50 [12] [µmol/kg]	Increase [11] [%]
Fc1ccc([C@@H]2C[C@@H](N3CCN(CCN4CCN=C4S)CC3)c3cc(F)ccc32)cc1.O=C(O)/C=C\C(=O)O.O=C(O)/C=C\C(=O)O	2.2	13	29	-32												
CN1CCN(CCN2CCN(C3CC(c4ccc(F)cc4)c4ccc(F)cc43)CC2)C1=O.Cl.Cl (stereo not drawn)	3.3	11	260	-11			13	1300	> 78			0.078	0.01			
Cl.Cl.O=c1[nH]c2ccccc2c(=O)n1CCN1CCN(C2CC(c3ccc(F)cc3)c3ccccc32)CC1 (stereo not drawn)	3.4	5.5	60	-22	-35	-42	0.77	7.7	> 70			4.4	0.1			
O.OC1=NCCN1CCN1CCN(C2CC(c3ccc(O)cc3)c3ccccc32)CC1 (stereo not drawn)	310	560	4000		-5	22			> 98		-6			-6	> 49	
O=C(O)/C=C\C(=O)O.O=C(O)/C=C\C(=O)O.O=C1NCCN1CCN1CCN([C@@H]2C[C@@H](c3ccccc3F)c3ccccc32)CC1				-3	-18	13			> 62			17				
Cl.Cl.OC1=NCCN1CCN1CCN(C2CC(c3ccc(Cl)cc3)c3ccccc32)CC1 (stereo not drawn)	37		800	3	13	15			> 80			40				
O=C(O)/C=C\C(=O)O.O=C(O)/C=C\C(=O)O.O=C1NCCN1CCN1CCN([C@H]2C[C@H](c3ccccc3F)c3ccccc32)CC1				-8	0	3			> 62			> 31				
O=C1NCCN1CCN1CCN([C@H]2C[C@H](c3ccccc3)c3ccccc32)CC1				-7	-11	0										
COc1ccc(C2CC(N3CCN(CCN4CCNC4=O)CC3)c3ccccc32)cc1 (stereo not drawn)	250	1400	15000	3	-19	69			> 95			> 48				
CN1CCN(CCN2CCN([C@@H]3C[C@@H](c4ccc(F)cc4)c4ccc(F)cc43)CC2)C1=O	10	11	38	-32		-29	2.2	550				0.023	0.0043			
OCCN1CCN(C2CC(c3ccc(F)cc3)c3ccccc32)CC1 (stereo not drawn)	64	62	680	-27	-15	-12	3.4	10	> 118			0.46	0.33			
O=C1NCCN1CCN1CCN(C2CCc3ccccc32)CC1 (stereo not drawn)	5100		62000						> 127	6					> 8	5
O=C1NCCN1CCN1CCN(Cc2ccccc2)CC1	> 1000	> 10000	> 1000	15					> 139			> 4.3				
Fc1ccc(C2CC(N3CCNCC3)c3ccccc32)cc1 (stereo not drawn)	30	100	1900	10	-13	7			> 108			2.5				
O=C(c1ccc(F)cc1)C1CCN(CCn2c(=O)[nH]c3ccccc3c2=O)CC1 [KETANSERIN]		15	1800	-32	-62	-14	3.2		> 101			0.79	0.024			
COc1cc2nc(N3CCN(C(=O)c4ccco4)CC3)nc(N)c2cc1OC [PRAZOSIN]				-32	0	-100	0.0095		> 95			0.45	> 12			
Cc1nc2sccn2c(=O)c1CCN1CCC(=C(c2ccc(F)cc2)c2ccc(F)cc2)CC1 [RITANSERIN]		47		10	-95	16			> 84			1.2				

Now from value to molecule, other results behind:

IC50 [1] [nM]	IC50 [2] [nM]	IC50 [3] [nM]	SMILES	Reduction [4] [%]	Change [5] [%]	Change [6] [%]	ED50 [7] [µmol/kg]	Ratio [8]	ED50 [9] [µmol/kg]	Increase [10] [%]	Reduction [11] [%]	ED50 [12, 14] [µmol/kg]	ED50 [13] [µmol/kg]	Reduction [10] [%]	ED50 [12] [µmol/kg]	Increase [11] [%]
44			Cl.Cl.O.O=C1OCCN1CCN1CCN(C2CC(c3ccc(F)cc3)c3ccc(F)cc32)CC1 (stereo not drawn)	-20	-27	19	4.4	5.2								
4.8	34	25	CCN1CCN(CCN2CCN(C3CC(c4ccc(F)cc4)c4ccc(F)cc43)CC2)C1=O.Cl.Cl (stereo not drawn)	4					> 75							
4.8	28	35	CC(C)N1CCN(CCN2CCN(C3CC(c4ccc(F)cc4)c4ccc(F)cc43)CC2)C1=O.Cl.Cl (stereo not drawn)						> 73	0	-5					
130			Cl.Cl.O=C1OCCN1CCN1CCN(C2CC(c3ccc(F)cc3)c3ccccc32)CC1 (stereo not drawn)						> 83		-15			-19		
9.4	160	25	Cl.Cl.Oc1nc2ccccc2n1CCN1CCN(C2CC(c3ccc(F)cc3)c3ccc(F)cc32)CC1 (stereo not drawn)	-15					> 72							
22		30	Cl.Cl.O=C1OCCN1CCCN1CCN(C2CC(c3ccc(F)cc3)c3ccc(F)cc32)CC1 (stereo not drawn)	-12	-32											
12	36	85	Cl.Cl.O=C1CCCN1CCN1CCN(C2CC(c3ccc(F)cc3)c3ccc(F)cc32)CC1 (stereo not drawn)	0												
7.7	22		CN1CCN(C2CC(c3ccc(F)cc3)c3ccc(F)cc32)CC1 (stereo not drawn)	-15	-85	-19			11			0.079				
4.9			Fc1ccc(C2CC(N3CCN(CCN4CCN=C4S)CC3)c3cc(F)ccc32)cc1 (stereo not drawn)	-10				370					0.01			
